Measured values as given in US9737493B2, “Compositions and methods for modulating DNMT1 inhibitor activity” (University of Louisville Research Foundation, Inc., priority 2012, dated 2017).

Tests used:
Assay type in all cases: cell-based, human
A549 cells [1] = assay: MitoSOX Red mitochondrial superoxide, flow cytometry; conditions: A549, 2 μM, 8 h
Protocol: (§1) FIG. 7: XB05 Induces ROS. (A) Cells were treated with either vehicle, tert-butyl hydrogen peroxide (TBHP, 100 μM, 3 h) or XB05 (8 h with 1 μM for U937 and Hs27, or 2 μM for A549), then stained with carboxy-H2DCFDA and PI for analysis by flow cytometry. Histograms illustrate representative data and bar graphs show the increase (over vehicle control) in the percentage of PI-negative (viable) cells with positive DCF fluorescence in each sample. Bars represent the mean+/−SEM from three independent experiments. […] (B) Cells were treated with XB05 as described in part A. As a positive control for superoxide production, cells were treated with Antimycin A (10 μM) for 1 h. Cells were harvested and subjected to MitoSOX™ Red staining for analysis by flow cytometry as described in Methods. Histograms illustrate representative data and bar graphs show the mean+/−SEM for three independent experiments.
(§2) Flow Cytometric Assays. Analyses were performed using a FACScalibur flow cytometer (BD Biosciences, Mountain View, Calif.) and FlowJo software (Tree Star, Inc., Ashland, Oreg.). Cells were treated as indicated in the figures and in the Brief Description of the Drawings. Cells were harvested by using TrypLE Cell Dissociation Reagent (Life Technologies). For cell death analyses, cells (adherent and detached cells) were stained with annexin-V-FITC and propidium iodide (PI) using the Apoptosis Detection Kit (BD Biosciences, San Jose, Calif.), according to the manufacturer's instructions. For cell-cycle distribution, cells were fixed, and stained with PI using the Cycle Test Plus kit (Becton Dickinson, Franklin Lakes, N.J.). For detection of γ-H2AX, cells were washed with PBS and fixed in 4% paraformaldehyde in PBS for 10 min at 37° C. Cells were then permeabilized in 90% methanol for 30 min on ice, blocked in 2% BSA (w/v in PBS) for 1 h, and incubated with γ-H2AX antibody or rabbit IgG isotype control (Santa Cruz, sc-2027) (0.3 μg/mL in 1% BSA) for 1 h. […] Cells were then washed twice with PBS, re-suspended at a density of 1×10^6 cells/mL in PBS and analyzed by flow cytometry.

Hs27 cells [2] = assay: as above; conditions: Hs27, 1 μM, 8 h
Protocol: as §1, §2

U937 cells [3] = assay: as above; conditions: U937, 1 μM, 8 h
Protocol: as §1, §2

A549 cells [4] = assay: Carboxy-H2DCFDA ROS detection, flow cytometry; conditions: A549, 2 μM, 8 h
Protocol: as §1, §2

Hs27 cells [5] = assay: Carboxy-H2DCFDA ROS detection, flow cytometry; conditions: Hs27, 1 μM, 8 h
Protocol: as §1, §2

U937 cells [6] = assay: Carboxy-H2DCFDA ROS detection, flow cytometry; conditions: U937, 1 μM, 8 h
Protocol: as §1, §2

A549 cells [7] = assay: Alkaline comet assay; conditions: A549, 72 h
Protocol: (§3) FIG. 11: XB05 Induces DNA Damage in Malignant Cells. (A) Alkaline comet assays for detection of DNA damage for cells treated as indicated for 72 h. TBHP was a positive control for oxidative DNA damage. Decreased DNA fluorescence in nucleoid comet heads (arrows) and increased smearing of DNA into comet tails (asterisks) is indicated. Scale bar, 400 μm. Data shown are representative of at least two individual experiments for each cell line. (B) Western blot analysis for γ-H2AX and GAPDH (loading control) in whole cell extracts from cells treated with vehicle, UV irradiation (800 μJ, positive control for DSBs), or XB05 (1 μM for U937, 2 μM for A549) after 24 h. Images shown are representative of three individual experiments in each cell line. (C) Flow cytometric detection of γ-H2AX in cells treated as described in part B. Bar graph represents mean+/−SEM for 3 individual experiments in each cell line. Statistical comparison indicated significant differences between vehicle and XB05-treated groups in both cell lines (*p≦0.05).
(§4) Comet Assays. Cells were washed once with ice cold PBS, harvested as described and re-suspended at 1×10^5 cells/mL in PBS. As a positive control, cells were incubated with 100 μM tert-butyl hydrogen peroxide (TBHP) for 30 mins (U937, A549) or 1 h (Hs27) at 4° C. prior to harvesting. Comet assays were performed using the CometAssay Kit (Trevigen, Gaithersburg, Md.) according to the manufacturer's instructions. Cells were visualized and digital images captured on an EVOSfI Digital Fluorescent Microscope equipped with a fluorescein light cube.

Hs27 cells [8] = assay: Alkaline comet assay; conditions: Hs27, 72 h
Protocol: as §3, §4

U937 cells [9] = assay: Alkaline comet assay; conditions: U937, 72 h
Protocol: as §3, §4

CCCCCC(O)C#CC(F)(F)Br (stereo not drawn) [XB05]
MitoSOX Red fluorescence vs vehicle (A549 cells [1]): increase in MitoSOX™ Red fluorescence
MitoSOX Red fluorescence vs vehicle (Hs27 cells [2]): not in Hs27 non-malignant fibroblasts
MitoSOX Red fluorescence vs vehicle (U937 cells [3]): increase in MitoSOX™ Red fluorescence
levels of ROS (DCF-positive viable cells) (A549 cells [4]): elevated
levels of ROS (DCF-positive viable cells) (Hs27 cells [5]): elevated
levels of ROS (DCF-positive viable cells) (U937 cells [6]): elevated
DNA damage (comet tails) (A549 cells [7]): comet tails
DNA damage (comet tails) (Hs27 cells [8]): no evidence of DNA damage
DNA damage (comet tails) (U937 cells [9]): comet tails
